Laboratory results published in patent EP3423441B1, “IODINATED ANALOGS OF CHOLINE, METHODS OF PREPARATION THEREOF, AND USE THEREOF AS MEDICAMENTS” (Univerzita Palackého v Olomouci, priority 2016, dated 2017).

Key:
Microsomal stability = details: hepatic microsomes
choline transporters = experiment: In vitro determination of IC50: inhibition of [^3H]choline chloride accumulation in PC-3 cells; format: cell-based; details: cell line PC-3 (human prostate carcinoma), [^3H]choline chloride 0.81 × 10^-6 M, 60 min at 37 °C
Description: IC50 value corresponds to a concentration of the given analog of choline which reduces the accumulation of choline chloride, the natural ligand of choline transporterss, to 50 % of the maximum value. For the assay, the tritium labeled choline chloride, i.e. [^3H]choline chloride, was used. The assay was performed in vitro on the cell line PC-3 derived from a human prostate carcinoma, which is known to overexpress choline transporters. […] As the negative control, a cell line of human ovarian carcinoma SKOV3 prepared to the confluence of 90 % in 24-well plates was used.
The cultivation medium was removed from the thus prepared cells in cultivation plates and the cells were rinsed with phosphate buffered saline (PBS). Subsequently, 0.3 mL of "incubation buffer" (25 mM Tris/HCl, 5.4 mM KCl, 1.8 mM CaCl2, 0.8 mM MgSO4, 5 mM glucose, 140 mM NaCl, pH adjusted to 7.4) was added to the cells. Then 0.1 mL of the solution of the tested substance (analog of choline) in the incubation buffer was added to the PC-3 cells in such concentrations, that after adding [^3H]choline chloride the resulting concentrations of the tested analog would be following: 0 M, 10^-8 M, 10^-7 M, 10^-6 M, 5 × 10^-6 M, 10^-5 M, 10^-4 M, 5 × 10^-4 M, 10^-3 M, 5×10^-3 M. Each concentration was tested in triplicate.
Subsequently, all cells prepared in this manner (PC-3 and SKOV3) were incubated with the analogs of choline for 15 minutes at the temperature of 37 °C.
Then 0.1 mL of the solution of the [^3H]choline chloride in the incubation buffer was added to all cell-containing wells, so that 0.1 mL of the solution had the activity of 15 kBq and that the final concentration of the [^3H]choline chloride in the medium with the cells was 0.81 × 10^-6 M. The cells were then incubated at 37 °C for a period of 60 min. After the incubation, all buffer solution was removed from the cells. The cells were rinsed with PBS, which was subsequently removed, and 0.2 mL of aqueous NaOH solution (0.1 M) was added to each well. The cells were incubated with sodium hydroxide for 30 min at 37 °C. The lysate was then homogenized with a pipette and 10 µL of the lysate were used for the determination of protein concentration by bicinchonic acid assay (BCA).
The remaining lysate (180 µL) was quantitatively transferred into scintillation vials containing a previously prepared scintillation solution (2 mL of the solution in each vial). Each well was then additionally rinsed with 0.2 mL of pure water and this solution was added to the corresponding scintillation vials. Scintillation vials were closed and their content was stirred on a shaker.
To another three scintillation vials containing scintillation solution (2 mL of the solution in each vial) the standard samples of [^3H]choline chloride were added (i.e. 10 µl of the [^3H]choline chloride solution together with 180 µl of aqueous NaOH solution (0.1 M) and 200 µl of water). The vials were closed and their content was stirred on the shaker.
Subsequently, radioactivity of each scintillation vial was measured using a liquid scintillation counter (Tri-Carb 2910TR Liquid Scintillation Counter, PerkinElmer). The recorded counts per second (cps) were then used to calculate the accumulation of [^3H]choline chloride in the individual cell samples. […] These values were used to construct a sigmoid curve of dependence between the rate of [^3H]choline chloride accumulation and the competing ligand (analog of choline) concentration(inhibition curve, Figure 2). The IC50 values were calculated from these inhibition curves.

in vitro = details: liver microsomes
[1] = Binding to plasmatic proteins; details: plasma

Row | Compound | IC50 (choline transporters) | further results
1 | C[N+]1(Cc2ccccc2I)CCCC(O)C1.Cc1ccc(S(=O)(=O)[O-])cc1 (stereo not shown) [Example 16, 3-hydroxy-1-(2-iodobenzyl)-1-methylpiperidin-1-ium 4-methylbenzenesulfonate] | 240 µM | Microsomal stability t1l2 (Microsomal stability): 119.5 min; Plasma stability (120 min) (Stability in the plasma): 79.0%; microsomal CLint (in vitro): 11.6 µL/min/mg; fraction unbound [1]: 0.956
2 | Cc1ccc(S(=O)(=O)[O-])cc1.OCCN1CC[N+](CCO)(Cc2ccccc2I)CC1 [Example 17, 1,4-bis(2-hydroxyethyl)-1-(2-iodobenzyl)piperazin-1-ium 4-methylbenzenesulfonate] | 740 µM | Microsomal stability t1l2 (Microsomal stability): 1732.5 min; Plasma stability (120 min) (Stability in the plasma): 58.4%; microsomal CLint (in vitro): 0.8 µL/min/mg; fraction unbound [1]: 0.943
3 | OCC[N+]1(CCOc2cccc(I)c2)CCCC1 [Example 28, 1-(2-hydroxyethyl)-1-[2-(3-iodophenoxy)ethyl]pyrrolidin-1-ium bromide] | 15 µM | –
4 | OCC[N+]1(Cc2ccccc2I)CCOCC1 [Example 36, 4-(2-hydroxyethyl)-4-(2-iodobenzyl)morpholin-4-ium chloride] | 43 µM | –
5 | OCC[N+]1(CCc2ccc(I)s2)CCCC1 [Example 34, 1-(2-hydroxyethyl)-1-[2-(5-iodothiophen-2-yl)ethyl]pyrrolidin-1-ium 4-methylbenzenesulfonate] | 10 µM | –
6 | C[N+](C)(CCO)CCCCCCOc1cccnc1I [Example 37, (2-hydroxyethyl)-{6-[(2-iodopyridin-3-yl)oxy]hexyl}-dimethylammonium bromide] | 1.4 µM | –
7 | C[N+](C)(CCO)CCOc1ccc(I)cc1 [Example 25, (2-hydroxyethyl)-[2-(4-iodophenoxy)ethyl]-dimethylammonium bromide] | 23 µM | –
8 | (2-hydroxyethyl)-{4-[(2-iodo-6-methylpyridin-3-yl)oxy]butyt}-dimethylammonium bromide [Example 38] | 18 µM | –
9 | COc1ccc(CCC[N+](C)(C)CCO)cc1I.Cc1ccc(S(=O)(=O)[O-])cc1 [Example 4, (2-hydroxyethyl)-[3-(3-iodo-4-methoxyphenyl)propyl]-dimethylammonium 4-methylbenzenesulfonate] | 19 µM | Microsomal stability t1l2 (Microsomal stability): 1.2 min; Plasma stability (120 min) (Stability in the plasma): 63.9%; microsomal CLint (in vitro): 1120 µL/min/mg; fraction unbound [1]: 0.715
10 | COc1ccc(CC[N+](C)(C)CCO)cc1I.Cc1ccc(S(=O)(=O)[O-])cc1 [Example 1, (2-hydroxyethyl)-[2-(3-iodo-4-methoxyphenyl)ethyl]-dimethylammonium 4-methylbenzenesulfonate] | 47 µM | Microsomal stability t1l2 (Microsomal stability): 165.0 min; Plasma stability (120 min) (Stability in the plasma): 28.4%; microsomal CLint (in vitro): 8.4 µL/min/mg; fraction unbound [1]: 0.805
11 | Cc1ccc(S(=O)(=O)[O-])cc1.OC1C[N+]2(Cc3ccccc3I)CCC1CC2 (stereo not shown) [Example 18, 3-hydroxy-1-(2-iodobenzyl)quinuclidin-1-ium 4-methylbenzenesulfonate] | 180 µM | Microsomal stability t1l2 (Microsomal stability): 22.0 min; Plasma stability (120 min) (Stability in the plasma): 73.4%; microsomal CLint (in vitro): 63 µL/min/mg; fraction unbound [1]: 0.903
12 | C[N+](C)(CCO)CCc1ccc(I)s1 [Example 33, (2-hydroxyethyl)-[2-(5-iodothiophen-2-yl)ethyl]-dimethylammonium 4-methylbenzenesulfonate] | 0.45 µM | –
13 | OCC[N+]1(Cc2ccc(I)cc2)CCCC1 [Example 20, 1-(2-hydroxyethyl)-1-(4-iodobenzyl)pyrrolidin-1-ium 4-methylbenzenesulfonate] | – | IC50 (choline transporters; 4-methylbenzenesulfonate): 6.3 µM; microsomal CLint (in vitro): 310 µL/min/mg
14 | C[N+](C)(CCO)CCCCOc1ccc(-c2ccccc2)cc1I [Example 39, (2-hydroxyethyl)-{4-[(3-iodo-[1,1'-biphenyl]-4-yl)oxy]butyl}-dimethylammonium bromide] | 1.3 µM | –
15 | C[N+](C)(CCO)Cc1ccc(I)cc1 [Example 11, (2-hydroxyethyl)-(4-iodobenzyl)-dimethylammonium bromide] | 150 µM | –
16 | CCCCCCOc1ccc(CCC[N+](C)(C)CCO)cc1I [Example 21, [3-(4-hexyloxy-3-iodophenyl)propyl]-(2-hydroxyethyl)-dimethylammonium 4-methylbenzenesulfonate] | 0.43 µM | –
17 | OCC[N+]1(CCCCOc2ccccc2I)CCCC1 [Example 32, 1-(2-hydroxyethyl)-1-[4-(2-iodophenoxy)butyl]pyrrolidin-1-ium bromide] | 5.1 µM | –

Row | Compound | IC50 (choline transporters) | further results
18 | C[N+](C)(C)CCO [Choline] | 3.7 µM | –
19 | C[N+](C)(CCO)Cc1cccc(I)c1 [Example 9, (2-hydroxyethyl)-(3-iodobenzyl)-dimethylammonium methanesulfonate] | 99 µM | –
20 | OCC[N+]1(CCOc2ccccc2I)CCCC1 [Example 24, 1-(2-hydroxyethyl)-1-[2-(2-iodophenoxy)ethyl]pyrrolidin-1-ium bromide] | 4.7 µM | –
21 | Cc1ccc(S(=O)(=O)[O-])cc1.OCC[N+]1(Cc2ccccc2I)CCCCC1 [Example 14, 1-(2-hydroxyethyl)-1-(2-iodobenzyl)piperidin-1-ium 4-methylbenzenesulfonate] | 190 µM | Microsomal stability t1l2 (Microsomal stability): 61.3 min; Plasma stability (120 min) (Stability in the plasma): 80.7%; microsomal CLint (in vitro): 22.6 µL/min/mg; fraction unbound [1]: 0.831
22 | OCC[N+]1(Cc2cccc(I)c2)CCCC1 [Example 10, 1-(2-hydroxyethyl)-1-(3-iodobenzyl)pyrrolidin-1-ium methanesulfonate] | 13 µM | –
23 | OCC[N+]1(CCCCCCOc2cccc(I)c2)CCCC1 [Example 30, 1-(2-hydroxyethyl)-1-[6-(3-iodophenoxy)hexyl]pyrrolidin-1-ium bromide] | 0.91 µM | –
24 | C[N+](C)(CCO)CCCCCCOc1ccc(I)c([N+](=O)[O-])c1 [Example 40, (2-hydroxyethyl)-[6-(4-iodo-3-nitrophenoxy)hexyl]-dimethylammonium bromide] | 0.14 µM | –
25 | C[N+](C)(CF)CCO [Fluoromethylcholine, reference compound] | 16 µM | –
26 | C[N+](C)(CCO)CCOc1cccc(I)c1 [Example 27, (2-hydroxyethyl)-[2-(3-iodophenoxy)ethyl]-dimethylammonium bromide] | 22 µM | –
27 | OCC[N+]1(Cc2ccc(I)cc2)CCCC1 [Example 13, 1-(2-hydroxyethyl)-1-(4-iodobenzyl)pyrrolidin-1-ium bromide] | 29 µM | –
28 | CCCCCCCCCCOc1ccc(CCC[N+](C)(C)CCO)cc1I [Example 22, [3-(4-decyloxy-3-iodophenyl)propyl]-(2-hydroxyethyl)-dimethylammonium methanesulfonate] | 1.9 µM | –
29 | OCC[N+]1(Cc2ccc(I)cc2)CCOCC1 [Example 35, 4-(2-hydroxyethyl)-4-(4-iodobenzyl)morpholin-4-ium bromide] | 270 µM | –
30 | C[N+](C)(CCO)CCCCCCOc1cccc(I)c1 [Example 29, (2-hydroxyethyl)-[6-(3-iodophenoxy)hexyl]-dimethylammonium bromide] | 0.044 µM | –
31 | CC[N+](CC)(CCO)Cc1ccc(I)cc1 [Example 12, diethyl-(2-hydroxyethyl)-(4-iodobenzyl)ammonium bromide] | 80 µM | –
32 | OCC[N+]1(CCOc2ccc(I)cc2)CCCC1 [Example 26, 1-(2-hydroxyethyl)-1-[2-(4-iodophenoxy)ethyl]pyrrolidin-1-ium bromide] | 18 µM | –
33 | C[N+](C)(CCO)CCCCOc1ccccc1I [Example 31, (2-hydroxyethyl)-[4-(2-iodophenoxy)butyl]-dimethylammonium bromide] | 11 µM | –
